Values quoted from earlier work in patent US10179139B2, “Pharmaceutical composition” (CIPLA Limited, priority 2010, dated 2019).

Conditions: in vivo

For `CCc1cc2c(cc1CC)CC(NC[C@H](O)c1ccc(O)c3[nH]c(=O)ccc13)C2` [Indacaterol, (R)-5-[2-[(5,6-Diethyl-2,3-dihydro-1H-inden-2-yl)amino]-1-hydroxyethyl]-8-hydroxyquinolin-2(1H)-one], the duration of action is listed as “more than 24 hrs”.
In the case of `C[N+]1(C)[C@@H]2C[C@@H](OC(=O)C(O)(c3cccs3)c3cccs3)C[C@H]1[C@@H]1O[C@@H]12` [Tiotropium, (1α, 2β, 4β, 5α, 7β)-7-[(Hydroxydi-2-thienylacetyl)oxy]-9,9-dimethyl-3-oxa-9-azoniatricyclo[3.3.1.0^2,4]nonane bromide monohydrate], the duration of action is listed as “up to 32 hours”.
